Reference: BindingDB's records for doi:10.1021/jm101011y (University of Basel, 2010)
pIC50: −log10 of the molar value.

Assay: Antagonist activity at Escherichia coli UT189 FimH in guinea pig red blood cells assessed as disaggregation of bacteria after 600 secs by aggregometry assay

Structure (SMILES) | pIC50
COC(=O)c1ccc(-c2ccc(Cl)c(O[C@H]3O[C@H](CO)[C@@H](O)[C@H](O)[C@@H]3O)c2)cc1 | 4.51
COC(=O)c1ccc(-c2cc(Cl)c(O[C@H]3O[C@H](CO)[C@@H](O)[C@H](O)[C@@H]3O)c(Cl)c2)cc1 | 4.85
O=C(O)c1ccc(-c2ccc(O[C@H]3O[C@H](CO)[C@@H](O)[C@H](O)[C@@H]3O)cc2)cc1 | 4.35
COC(=O)c1ccc(-c2ccc(O[C@H]3O[C@H](CO)[C@@H](O)[C@H](O)[C@@H]3O)cc2Cl)cc1 | 4.39
O=C(O)c1ccc(-c2ccc(O[C@H]3O[C@H](CO)[C@@H](O)[C@H](O)[C@@H]3O)cc2Cl)cc1 | 4.77
O=C(O)c1ccc(-c2cccc(O[C@H]3O[C@H](CO)[C@@H](O)[C@H](O)[C@@H]3O)c2)cc1 | 4.35
COC(=O)c1ccc(-c2ccc(O[C@H]3O[C@H](CO)[C@@H](O)[C@H](O)[C@@H]3O)c(Cl)c2)cc1 | 5.05
O=C(O)c1ccc(-c2ccc(O[C@H]3O[C@H](CO)[C@@H](O)[C@H](O)[C@@H]3O)c(Cl)c2)cc1 | 5.00
